Reference: patent publication EP0080305A1, “Antiviral 2'-deoxyuridines, their preparation and use” (BEECHAM GROUP PLC, priority 1981, dated 1983)
Counter-ions that a name gives are not always drawn. Like-named read-outs stand apart in the source and are kept apart here.

Experiments:
[1] = tested on: Vero (African Green Monkey Kidney) cells; test: Minimum concentration killing the Vero cell monolayer, read in the plaque reduction test; type: cell-based; conditions: minimum concentration which killed the cell monolayer; virus-infected Vero cells, 6 days at 37°C
Method: (§1) Vero (African Green Monkey Kidney) cells were grown to confluence in 6 well multidishes, each well being 3.5 cm in diameter. The cells were incubated with Herpes simplex type 1 virus (HFEM strain) and overlaid with 0.5 mL of 0.9% agarose (w/v) in maintenance medium containing the test compound at a range of concentrations from 3 µg/mL in half-log dilution steps. The virus infected cultures were then incubated at 37 °C for 6 days before fixing in 4% formaldehyde solution and staining with carbolfuchsin. The dishes were then examined to find what concentration of test compound causing a 50% reduction in the number of virus plaques formed (PDD50 value) and the minimum concentration of test compound which killed the cell monolayer, leaving a clear zone devoid of cells and virus plaques (MTD).

[2] = tested on: Herpes simplex type 1 virus (HFEM strain); test: Plaque reduction test in Vero cells infected with Herpes simplex type 1 virus; type: cell-based
Method: as §1

[3] = Minimum concentration killing the Vero cell monolayer, read in the plaque reduction test; type: cell-based, African Green Monkey; conditions: african green monkey; minimum concentration which killed the cell monolayer; virus-infected Vero cells, 6 days at 37°C; read-out: MTD
Method: as §1

[4] = concentration causing a 50% reduction in the number of virus plaques, 6 days at 37°C
[5] = Human alphaherpesvirus 1, 144 h, concentration causing a 50% reduction in the number of virus plaques, 6 days at 37°C, read-out: PDD50 (the source's name)
[6] = Human alphaherpesvirus 1, 144 h, same PDD50 values given in µM, 6 days at 37°C, read-out: PDD50 (the source's name)
[7] = Human alphaherpesvirus 1, Vero, 144 h, read-out: PDD50, concentration causing a 50% reduction in the number of virus plaques, 6 days at 37°C
[8] = Human alphaherpesvirus 1, Vero, 144 h, read-out: PDD50, same PDD50 values given in µM, 6 days at 37°C
[9] = same PDD50 values given in µM, 6 days at 37°C, read-out: PDD50 (the source's name)

Molecule | MTD [1] | PDD50 [2, 4] | MCC at 144 h [3] | IC50 [2, 7] | IC50 [2, 8] | also measured
NC(Cc1ccccc1)C(=O)OC[C@H]1O[C@@H](n2cc(/C=C/Br)c(=O)[nH]c2=O)C[C@@H]1OC(=O)C(N)Cc1ccccc1 (stereo partly drawn) [Example 7, E-5-(2-Bromovinyl)-3',5'-di-O-phenylalanyl-2'-deoxyuridine bis trifluoroacetate] | >100 µg/mL |  |  |  |  | PDD50 ([2]; concentration causing a 50% reduction in the number of virus plaques, 6 days at 37°C, bis trifluoroacetate): 0.14 µg/mL; IC50 ([2]; read-out: PDD50, same PDD50 values given in µM, 6 days at 37°C, bis trifluoroacetate): 0.16 µM
CC(C)C[C@H](N)C(=O)OC[C@H]1O[C@@H](n2cc(/C=C/Br)c(=O)[nH]c2=O)C[C@@H]1OC(=O)[C@@H](N)CC(C)C [Example 18, E-5-(2-bromovinyl)-3',5'-di-L-leucyl-2'-deoxyuridine bis bisulphate salt] | >100 µg/mL | 0.28 µg/mL |  |  |  | IC50 ([2]; read-out: PDD50, same PDD50 values given in µM, 6 days at 37°C): 0.37 µM
CC(C)(C)OC(=O)N1CCC[C@H]1C(=O)OC[C@H]1O[C@@H](n2cc(/C=C/Br)c(=O)[nH]c2=O)C[C@@H]1OC(=O)[C@@H]1CCCN1C(=O)OC(C)(C)C [Example 27, E-5-(2-Brcmovinyl)-3',5'-di-(t-butoxycarbonyl-L-prolyl)-2'-deoxyuridine] |  |  | 100 µg/mL |  |  | IC50 [2, 5]: 3.51 µg/mL; IC50 [2, 6]: 4.83 µM
CC(C)(C)OC(=O)N1CCC[C@H]1C(=O)OC[C@H]1O[C@@H](n2cc(/C=C/Br)c(=O)[nH]c2=O)C[C@@H]1O [Example 28] |  |  | 100 µg/mL |  |  | IC50 [2, 5]: 2.12 µg/mL; IC50 [2, 6]: 4 µM
CC(C)(C)OC(=O)N1CCC[C@H]1C(=O)O[C@H]1C[C@H](n2cc(/C=C/Br)c(=O)[nH]c2=O)O[C@@H]1CO [Example 29, E-5-(2-Bromovinyl)-3'-(t-butoxycarbonyl-L-prolyl)-2'-decxyuridine] |  |  | 100 µg/mL |  |  | IC50 [2, 5]: 0.64 µg/mL; IC50 [2, 6]: 1.21 µM
CC(C)C[C@@H](N)C(=O)OC[C@H]1O[C@@H](n2cc(/C=C/Br)c(=O)[nH]c2=O)C[C@@H]1OC(=O)[C@H](N)CC(C)C [Example 30, E-5-(2-Bromovinyl)-3',5'-di-D-leucyl-2'-deoxyuridine bis trifluoroacetate] |  |  | > 100 µg/mL | 0.16 µg/mL | 0.2 µM | 
N[C@H](Cc1ccccc1)C(=O)OC[C@H]1O[C@@H](n2cc(/C=C/Br)c(=O)[nH]c2=O)C[C@@H]1OC(=O)[C@H](N)Cc1ccccc1 [Example 31, E-5-(2-Bromovinyl)-3',5'-di-D-phenylalanyl--2'-deoxyuridine bis trifluoroacetate] |  |  | > 100 µg/mL | 0.55 µg/mL | 0.64 µM | 
CSCC[C@H](N)C(=O)OC[C@H]1O[C@@H](n2cc(/C=C/Br)c(=O)[nH]c2=O)C[C@@H]1OC(=O)[C@@H](N)CCSC [Example 32, E-5-(2-Bromovinyl)-3',5'-di-L-methionyl-2'-deoxyuridine bis trifluoroacetate] |  |  | > 100 µg/mL | 0.26 µg/mL | 0.32 µM | 
CC(C)[C@H](N)C(=O)OC[C@H]1O[C@@H](n2cc(/C=C/Br)c(=O)[nH]c2=O)C[C@@H]1OC(=O)[C@@H](N)C(C)C [Example 33, E-5-(2-Bromovinyl)-3',5'-di-L-valyl-2'-deoxyuridine bis trifluoroacetate] |  |  | > 100 µg/mL | 0.24 µg/mL | 0.32 µM | 
CC[C@H](C)[C@H](N)C(=O)OC[C@H]1O[C@@H](n2cc(/C=C/Br)c(=O)[nH]c2=O)C[C@@H]1OC(=O)[C@@H](N)[C@@H](C)CC [Example 34, E-5-(2-Bromovinyl)-3',5'-di-L-isoleucyl-2'-deoxyuridine bis trifluoroacetate] |  |  | > 100 µg/mL | 0.4 µg/mL | 0.51 µM | 
O=C(OC[C@H]1O[C@@H](n2cc(/C=C/Br)c(=O)[nH]c2=O)C[C@@H]1OC(=O)[C@@H]1CCCN1)[C@@H]1CCCN1 [Example 35, E-5-(2-Bromovinyl)-3',5'-di-L-prolyl-2'-deoxyuridine bis trifluoroacetate] |  |  | > 100 µg/mL | 0.22 µg/mL | 0.29 µM | 
O=C(OC[C@H]1O[C@@H](n2cc(/C=C/Br)c(=O)[nH]c2=O)C[C@@H]1O)[C@@H]1CCCN1 [Example 36, E-5-(2-Bromovinyl)-5'-L-prolyl-2'-deoxyuridine trifluoroacetate] |  |  | > 100 µg/mL | 0.55 µg/mL | 1.01 µM | 
O=C(O[C@H]1C[C@H](n2cc(/C=C/Br)c(=O)[nH]c2=O)O[C@@H]1CO)[C@@H]1CCCN1 [Example 37, E-5-(2-Bromovinyl)-3'-L-prolyl-2'-deoxyuridine trifluoroacetate] |  |  | > 100 µg/mL | 0.68 µg/mL | 1.25 µM | 
NC(=O)CC[C@H](N)C(=O)OC[C@H]1O[C@@H](n2cc(/C=C/Br)c(=O)[nH]c2=O)C[C@@H]1OC(=O)[C@@H](N)CCC(N)=O [Example 39, bis trifluoroacetate] |  |  | > 100 µg/mL | 0.42 µg/mL | 0.51 µM | 
E-5-(2-Bromovinyl)-3',5'-di-L-alanyl-2'-deoxyuridine bis trifluoroacetate [Example 38] | >100 µg/mL | 0.26 µg/mL |  |  |  | IC50 [2, 9]: 0.37 µM
E-5-(2-Bromovinyl)-3',5'-di-L-leucyl-2'-deoxyuridine bis trihydrogenpyrophosphate [Example 41] | >100 µg/mL | 0.55 µg/mL |  |  |  | IC50 [2, 9]: 0.6 µM
E-5-(2-Bromovinyl)-3',5'-di-glycyl-2'-deoxyuridine bis bisulphate [Example 17] | >100 µg/mL | 0.49 µg/mL |  |  |  | IC50 [2, 9]: 0.76 µM
E-5-(2-Bromovinyl)-5'-O-phenylalanyl-2'-deoxyuridine trifluoroacetate [Example 9] | >100 µg/mL | 0.19 µg/mL |  |  |  | IC50 [2, 9]: 0.32 µM
E-5-(2-bromovinyl)-3',5'-di-L-lysyl-2'-deoxyuridine tetrakis trifluoroacetate dihydrate [Example 40] | >100 µg/mL | 0.19 µg/mL |  |  |  | IC50 [2, 9]: 0.18 µM
